Measurements taken from the kinase profiling compilation of Christmann-Franck et al. (2016).

Each molecule was assayed against GSK3B (human) (UniProt P49841) (assay: radiometric filter-binding kinase assay, Kinase HotSpot). Conditions: compound 0.5 µM; ATP 10 µM.
GSK3B (human), sequence (P49841 whole entry, looked up): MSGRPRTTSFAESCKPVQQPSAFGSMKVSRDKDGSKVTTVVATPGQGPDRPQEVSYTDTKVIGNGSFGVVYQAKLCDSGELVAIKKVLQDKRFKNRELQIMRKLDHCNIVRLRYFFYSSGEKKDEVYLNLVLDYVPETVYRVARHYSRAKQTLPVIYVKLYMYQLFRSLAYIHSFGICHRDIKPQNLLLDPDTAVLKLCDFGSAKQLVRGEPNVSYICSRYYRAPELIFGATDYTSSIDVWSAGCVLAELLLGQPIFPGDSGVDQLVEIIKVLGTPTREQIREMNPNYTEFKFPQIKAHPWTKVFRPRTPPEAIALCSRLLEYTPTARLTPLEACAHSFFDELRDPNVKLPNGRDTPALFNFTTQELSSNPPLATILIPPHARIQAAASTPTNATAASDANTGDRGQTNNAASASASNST

Structure (SMILES)	residual activity [%]
Clc1ccc(Nc2nnc(Cc3ccncc3)c3ccccc23)cc1	104
O=C(NC(NC(=S)Nc1ccc(F)c([N+](=O)[O-])c1)C(Cl)(Cl)Cl)C(c1ccccc1)c1ccccc1 (centres undefined)	109
Cc1cc2ncc(-c3ccccc3)nc2cc1C	79.5
Nc1n[nH]c2nnc(-c3c(-c4ccccc4)nn4ccccc34)cc12	109

What follows are molecules tested against ACVRL1 (human) (UniProt P37023) in the same assay as above. Conditions: compound 0.5 µM; ATP 10 µM.

Structure (SMILES)	residual activity [%]
Clc1ccc(Nc2nnc(Cc3ccncc3)c3ccccc23)cc1	98.5
O=C(NC(NC(=S)Nc1ccc(F)c([N+](=O)[O-])c1)C(Cl)(Cl)Cl)C(c1ccccc1)c1ccccc1 (centres undefined)	107
Cc1cc2ncc(-c3ccccc3)nc2cc1C	97.9
Nc1n[nH]c2nnc(-c3c(-c4ccccc4)nn4ccccc34)cc12	106

These molecules were tested against EPHA2 (human) (UniProt P29317) in the same assay as above. Conditions: compound 0.5 µM; ATP 10 µM.
EPHA2 (human), sequence (P29317 whole entry, looked up): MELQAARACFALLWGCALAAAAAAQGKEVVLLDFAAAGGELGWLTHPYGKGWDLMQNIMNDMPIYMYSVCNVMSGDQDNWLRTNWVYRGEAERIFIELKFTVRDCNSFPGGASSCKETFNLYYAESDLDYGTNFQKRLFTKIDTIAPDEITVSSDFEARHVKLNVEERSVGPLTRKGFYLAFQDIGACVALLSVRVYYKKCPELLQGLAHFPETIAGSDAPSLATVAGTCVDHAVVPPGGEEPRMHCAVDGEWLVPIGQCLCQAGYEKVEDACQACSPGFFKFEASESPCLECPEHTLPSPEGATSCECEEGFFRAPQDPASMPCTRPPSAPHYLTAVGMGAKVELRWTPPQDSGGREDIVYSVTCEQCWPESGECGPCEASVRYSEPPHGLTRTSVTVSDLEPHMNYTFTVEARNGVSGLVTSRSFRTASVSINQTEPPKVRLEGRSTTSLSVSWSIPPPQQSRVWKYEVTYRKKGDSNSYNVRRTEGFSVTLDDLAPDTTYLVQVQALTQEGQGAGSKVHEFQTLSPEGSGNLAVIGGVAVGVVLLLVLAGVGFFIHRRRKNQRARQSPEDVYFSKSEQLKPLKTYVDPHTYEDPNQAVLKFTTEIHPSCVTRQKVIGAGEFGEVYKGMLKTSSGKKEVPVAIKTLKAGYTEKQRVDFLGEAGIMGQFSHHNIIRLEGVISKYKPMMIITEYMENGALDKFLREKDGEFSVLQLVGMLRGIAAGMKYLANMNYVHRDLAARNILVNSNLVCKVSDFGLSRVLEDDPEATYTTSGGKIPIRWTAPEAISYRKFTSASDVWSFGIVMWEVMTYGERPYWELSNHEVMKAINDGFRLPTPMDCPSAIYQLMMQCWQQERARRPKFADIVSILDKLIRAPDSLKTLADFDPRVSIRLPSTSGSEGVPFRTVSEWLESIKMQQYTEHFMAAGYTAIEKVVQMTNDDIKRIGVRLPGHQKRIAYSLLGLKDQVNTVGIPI

Structure (SMILES)	residual activity [%]
Clc1ccc(Nc2nnc(Cc3ccncc3)c3ccccc23)cc1	92.5
O=C(NC(NC(=S)Nc1ccc(F)c([N+](=O)[O-])c1)C(Cl)(Cl)Cl)C(c1ccccc1)c1ccccc1 (centres undefined)	103
Cc1cc2ncc(-c3ccccc3)nc2cc1C	103
Nc1n[nH]c2nnc(-c3c(-c4ccccc4)nn4ccccc34)cc12	98.3

What follows are molecules tested against PKN1 (human) (UniProt Q16512) in the same assay as above. Conditions: compound 0.5 µM; ATP 10 µM.

Structure (SMILES)	residual activity [%]
Clc1ccc(Nc2nnc(Cc3ccncc3)c3ccccc23)cc1	95.9
O=C(NC(NC(=S)Nc1ccc(F)c([N+](=O)[O-])c1)C(Cl)(Cl)Cl)C(c1ccccc1)c1ccccc1 (centres undefined)	92.8
Cc1cc2ncc(-c3ccccc3)nc2cc1C	92.5
Nc1n[nH]c2nnc(-c3c(-c4ccccc4)nn4ccccc34)cc12	98.2

The molecules below were run against HCK (human) (UniProt P08631) in the same assay as above. Conditions: compound 0.5 µM; ATP 10 µM.

Structure (SMILES)	residual activity [%]
Clc1ccc(Nc2nnc(Cc3ccncc3)c3ccccc23)cc1	89.5
O=C(NC(NC(=S)Nc1ccc(F)c([N+](=O)[O-])c1)C(Cl)(Cl)Cl)C(c1ccccc1)c1ccccc1 (centres undefined)	107
Cc1cc2ncc(-c3ccccc3)nc2cc1C	90.1
Nc1n[nH]c2nnc(-c3c(-c4ccccc4)nn4ccccc34)cc12	91.1

Each molecule was assayed against TAOK1 (human) (UniProt Q7L7X3) in the same assay as above. Conditions: compound 0.5 µM; ATP 10 µM.
TAOK1 (human), sequence (Q7L7X3 whole entry, looked up): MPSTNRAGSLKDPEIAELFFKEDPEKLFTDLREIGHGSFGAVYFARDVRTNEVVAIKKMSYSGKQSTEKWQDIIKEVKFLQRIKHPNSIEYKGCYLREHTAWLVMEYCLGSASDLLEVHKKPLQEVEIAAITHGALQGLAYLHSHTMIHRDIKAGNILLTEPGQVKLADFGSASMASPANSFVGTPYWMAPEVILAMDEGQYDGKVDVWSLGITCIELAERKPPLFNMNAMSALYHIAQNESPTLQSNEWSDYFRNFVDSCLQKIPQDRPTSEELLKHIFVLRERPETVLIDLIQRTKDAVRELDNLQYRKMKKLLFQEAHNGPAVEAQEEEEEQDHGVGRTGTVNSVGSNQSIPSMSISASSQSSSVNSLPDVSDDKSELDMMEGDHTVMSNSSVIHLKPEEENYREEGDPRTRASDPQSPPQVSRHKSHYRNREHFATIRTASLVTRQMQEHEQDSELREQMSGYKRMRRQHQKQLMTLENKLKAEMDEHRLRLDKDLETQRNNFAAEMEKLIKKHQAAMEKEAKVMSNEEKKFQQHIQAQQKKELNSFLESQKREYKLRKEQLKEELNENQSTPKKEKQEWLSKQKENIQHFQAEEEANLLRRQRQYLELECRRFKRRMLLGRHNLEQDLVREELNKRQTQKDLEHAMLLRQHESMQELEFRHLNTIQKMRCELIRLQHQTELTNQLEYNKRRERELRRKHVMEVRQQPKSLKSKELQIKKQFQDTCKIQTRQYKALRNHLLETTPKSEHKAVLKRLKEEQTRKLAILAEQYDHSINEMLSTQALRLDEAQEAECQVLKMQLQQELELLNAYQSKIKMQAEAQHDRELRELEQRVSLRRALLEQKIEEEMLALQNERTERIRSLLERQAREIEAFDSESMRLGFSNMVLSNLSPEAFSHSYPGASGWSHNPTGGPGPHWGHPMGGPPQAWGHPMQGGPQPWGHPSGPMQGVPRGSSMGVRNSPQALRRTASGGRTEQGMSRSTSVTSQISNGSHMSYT

Structure (SMILES)	residual activity [%]
Clc1ccc(Nc2nnc(Cc3ccncc3)c3ccccc23)cc1	98.7
O=C(NC(NC(=S)Nc1ccc(F)c([N+](=O)[O-])c1)C(Cl)(Cl)Cl)C(c1ccccc1)c1ccccc1 (centres undefined)	104
Cc1cc2ncc(-c3ccccc3)nc2cc1C	94.3
Nc1n[nH]c2nnc(-c3c(-c4ccccc4)nn4ccccc34)cc12	95.8

These molecules were tested against TAOK2 (human) (UniProt Q9UL54) in the same assay as above. Conditions: compound 0.5 µM; ATP 10 µM.
TAOK2 (human), sequence (Q9UL54 whole entry, looked up): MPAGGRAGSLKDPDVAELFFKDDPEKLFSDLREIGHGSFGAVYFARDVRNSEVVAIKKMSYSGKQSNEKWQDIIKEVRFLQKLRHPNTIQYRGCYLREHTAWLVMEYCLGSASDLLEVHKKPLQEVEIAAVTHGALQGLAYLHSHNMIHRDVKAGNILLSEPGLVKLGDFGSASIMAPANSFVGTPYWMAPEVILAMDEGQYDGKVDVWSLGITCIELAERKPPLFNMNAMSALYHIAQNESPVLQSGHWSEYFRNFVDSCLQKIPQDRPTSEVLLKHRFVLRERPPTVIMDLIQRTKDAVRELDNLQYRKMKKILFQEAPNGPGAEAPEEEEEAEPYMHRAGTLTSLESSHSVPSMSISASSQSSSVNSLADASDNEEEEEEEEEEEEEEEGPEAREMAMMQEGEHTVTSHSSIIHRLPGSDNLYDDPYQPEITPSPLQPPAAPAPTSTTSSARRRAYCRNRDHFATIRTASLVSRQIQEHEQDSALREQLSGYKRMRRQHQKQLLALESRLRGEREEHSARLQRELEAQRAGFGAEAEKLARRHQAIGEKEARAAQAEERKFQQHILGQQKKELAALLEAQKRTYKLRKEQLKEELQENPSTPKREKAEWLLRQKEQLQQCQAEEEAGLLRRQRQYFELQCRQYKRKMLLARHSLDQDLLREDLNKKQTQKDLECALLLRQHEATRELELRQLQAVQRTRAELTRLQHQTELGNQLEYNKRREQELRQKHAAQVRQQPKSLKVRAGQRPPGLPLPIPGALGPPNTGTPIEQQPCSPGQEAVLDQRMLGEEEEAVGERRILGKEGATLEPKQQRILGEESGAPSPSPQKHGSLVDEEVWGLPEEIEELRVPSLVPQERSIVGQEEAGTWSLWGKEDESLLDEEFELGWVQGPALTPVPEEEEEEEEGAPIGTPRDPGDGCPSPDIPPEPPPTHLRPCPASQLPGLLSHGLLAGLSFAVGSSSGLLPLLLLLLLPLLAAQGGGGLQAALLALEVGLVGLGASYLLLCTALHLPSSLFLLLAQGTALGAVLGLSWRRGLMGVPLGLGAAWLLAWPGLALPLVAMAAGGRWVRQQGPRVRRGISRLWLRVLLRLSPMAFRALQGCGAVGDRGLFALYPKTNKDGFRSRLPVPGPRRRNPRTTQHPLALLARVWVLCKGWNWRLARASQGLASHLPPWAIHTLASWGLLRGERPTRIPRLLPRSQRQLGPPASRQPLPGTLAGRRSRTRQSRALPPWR

Structure (SMILES)	residual activity [%]
Clc1ccc(Nc2nnc(Cc3ccncc3)c3ccccc23)cc1	85.4
O=C(NC(NC(=S)Nc1ccc(F)c([N+](=O)[O-])c1)C(Cl)(Cl)Cl)C(c1ccccc1)c1ccccc1 (centres undefined)	103
Cc1cc2ncc(-c3ccccc3)nc2cc1C	105
Nc1n[nH]c2nnc(-c3c(-c4ccccc4)nn4ccccc34)cc12	101

Each molecule was assayed against ADRBK2 (human) (UniProt P35626) in the same assay as above. Conditions: compound 0.5 µM; ATP 10 µM.

Structure (SMILES)	residual activity [%]
Clc1ccc(Nc2nnc(Cc3ccncc3)c3ccccc23)cc1	92.9
O=C(NC(NC(=S)Nc1ccc(F)c([N+](=O)[O-])c1)C(Cl)(Cl)Cl)C(c1ccccc1)c1ccccc1 (centres undefined)	98.3
Cc1cc2ncc(-c3ccccc3)nc2cc1C	87.4
Nc1n[nH]c2nnc(-c3c(-c4ccccc4)nn4ccccc34)cc12	101

These molecules were tested against ZAP70 (human) (UniProt P43403) in the same assay as above. Conditions: compound 0.5 µM; ATP 10 µM.

Structure (SMILES)	residual activity [%]
Clc1ccc(Nc2nnc(Cc3ccncc3)c3ccccc23)cc1	96.6
O=C(NC(NC(=S)Nc1ccc(F)c([N+](=O)[O-])c1)C(Cl)(Cl)Cl)C(c1ccccc1)c1ccccc1 (centres undefined)	94.2
Cc1cc2ncc(-c3ccccc3)nc2cc1C	96.7
Nc1n[nH]c2nnc(-c3c(-c4ccccc4)nn4ccccc34)cc12	90.1

The molecules below were run against GRK7 (human) (UniProt Q8WTQ7) in the same assay as above. Conditions: compound 0.5 µM; ATP 10 µM.

Structure (SMILES)	residual activity [%]
Clc1ccc(Nc2nnc(Cc3ccncc3)c3ccccc23)cc1	92.2
O=C(NC(NC(=S)Nc1ccc(F)c([N+](=O)[O-])c1)C(Cl)(Cl)Cl)C(c1ccccc1)c1ccccc1 (centres undefined)	101
Cc1cc2ncc(-c3ccccc3)nc2cc1C	102
Nc1n[nH]c2nnc(-c3c(-c4ccccc4)nn4ccccc34)cc12	96.7

Each molecule was assayed against EPHA7 (human) (UniProt Q15375) in the same assay as above. Conditions: compound 0.5 µM; ATP 10 µM.
EPHA7 (human), sequence (Q15375 whole entry, looked up): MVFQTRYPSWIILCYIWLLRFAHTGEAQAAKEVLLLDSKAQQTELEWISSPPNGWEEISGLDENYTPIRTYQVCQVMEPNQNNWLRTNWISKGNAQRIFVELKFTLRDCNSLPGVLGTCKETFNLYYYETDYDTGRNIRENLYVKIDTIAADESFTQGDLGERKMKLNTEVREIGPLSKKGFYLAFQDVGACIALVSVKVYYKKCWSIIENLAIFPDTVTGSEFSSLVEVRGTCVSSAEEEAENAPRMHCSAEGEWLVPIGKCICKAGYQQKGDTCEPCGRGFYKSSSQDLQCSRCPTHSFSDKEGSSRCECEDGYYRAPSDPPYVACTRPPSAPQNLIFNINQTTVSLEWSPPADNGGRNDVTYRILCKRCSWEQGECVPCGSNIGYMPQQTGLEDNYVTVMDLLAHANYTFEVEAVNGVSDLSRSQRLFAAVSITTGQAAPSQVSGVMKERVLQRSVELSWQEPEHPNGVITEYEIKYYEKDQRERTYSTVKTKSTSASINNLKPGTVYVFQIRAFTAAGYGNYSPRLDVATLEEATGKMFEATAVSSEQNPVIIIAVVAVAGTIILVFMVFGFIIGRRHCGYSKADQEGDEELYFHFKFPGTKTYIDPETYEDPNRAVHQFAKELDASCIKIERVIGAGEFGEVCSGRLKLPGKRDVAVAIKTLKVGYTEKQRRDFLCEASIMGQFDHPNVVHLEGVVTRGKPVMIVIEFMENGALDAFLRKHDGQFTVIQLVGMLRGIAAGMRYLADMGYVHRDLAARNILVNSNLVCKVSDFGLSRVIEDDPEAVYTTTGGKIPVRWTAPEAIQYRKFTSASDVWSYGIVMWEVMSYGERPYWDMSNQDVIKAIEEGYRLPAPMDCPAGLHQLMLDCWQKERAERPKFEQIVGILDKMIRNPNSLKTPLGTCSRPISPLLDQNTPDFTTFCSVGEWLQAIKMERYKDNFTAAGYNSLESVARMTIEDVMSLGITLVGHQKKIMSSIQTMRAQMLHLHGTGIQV

Structure (SMILES)	residual activity [%]
Clc1ccc(Nc2nnc(Cc3ccncc3)c3ccccc23)cc1	90.5
O=C(NC(NC(=S)Nc1ccc(F)c([N+](=O)[O-])c1)C(Cl)(Cl)Cl)C(c1ccccc1)c1ccccc1 (centres undefined)	109
Cc1cc2ncc(-c3ccccc3)nc2cc1C	96.6
Nc1n[nH]c2nnc(-c3c(-c4ccccc4)nn4ccccc34)cc12	99.5

These molecules were tested against RPS6KA5 KD2 (human) (UniProt O75582) in the same assay as above. Conditions: compound 0.5 µM; ATP 10 µM.

Structure (SMILES)	residual activity [%]
Clc1ccc(Nc2nnc(Cc3ccncc3)c3ccccc23)cc1	85.5
O=C(NC(NC(=S)Nc1ccc(F)c([N+](=O)[O-])c1)C(Cl)(Cl)Cl)C(c1ccccc1)c1ccccc1 (centres undefined)	113
Cc1cc2ncc(-c3ccccc3)nc2cc1C	96.4
Nc1n[nH]c2nnc(-c3c(-c4ccccc4)nn4ccccc34)cc12	101

Each molecule was assayed against PRKCI (human) (UniProt P41743) in the same assay as above. Conditions: compound 0.5 µM; ATP 10 µM.

Structure (SMILES)	residual activity [%]
Clc1ccc(Nc2nnc(Cc3ccncc3)c3ccccc23)cc1	94.2
O=C(NC(NC(=S)Nc1ccc(F)c([N+](=O)[O-])c1)C(Cl)(Cl)Cl)C(c1ccccc1)c1ccccc1 (centres undefined)	94
Cc1cc2ncc(-c3ccccc3)nc2cc1C	98
Nc1n[nH]c2nnc(-c3c(-c4ccccc4)nn4ccccc34)cc12	98.3

These molecules were tested against MAP3K9 (human) (UniProt P80192) in the same assay as above. Conditions: compound 0.5 µM; ATP 10 µM.

Structure (SMILES)	residual activity [%]
Clc1ccc(Nc2nnc(Cc3ccncc3)c3ccccc23)cc1	113
O=C(NC(NC(=S)Nc1ccc(F)c([N+](=O)[O-])c1)C(Cl)(Cl)Cl)C(c1ccccc1)c1ccccc1 (centres undefined)	94
Cc1cc2ncc(-c3ccccc3)nc2cc1C	92.6
Nc1n[nH]c2nnc(-c3c(-c4ccccc4)nn4ccccc34)cc12	99.9

These molecules were tested against MST4 (human) (UniProt Q9P289) in the same assay as above. Conditions: compound 0.5 µM; ATP 10 µM.
MST4 (human), sequence (Q9P289 whole entry, looked up): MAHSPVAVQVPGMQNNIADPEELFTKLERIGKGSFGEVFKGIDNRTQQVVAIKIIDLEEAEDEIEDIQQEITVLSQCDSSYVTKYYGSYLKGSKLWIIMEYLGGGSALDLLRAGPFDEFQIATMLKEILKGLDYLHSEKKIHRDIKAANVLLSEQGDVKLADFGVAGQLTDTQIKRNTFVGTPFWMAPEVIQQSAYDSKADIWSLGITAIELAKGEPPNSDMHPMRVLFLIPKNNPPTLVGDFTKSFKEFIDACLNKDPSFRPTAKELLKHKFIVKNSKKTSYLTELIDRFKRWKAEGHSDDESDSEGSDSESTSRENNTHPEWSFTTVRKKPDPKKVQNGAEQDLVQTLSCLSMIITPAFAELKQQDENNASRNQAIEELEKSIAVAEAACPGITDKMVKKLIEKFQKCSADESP

Structure (SMILES)	residual activity [%]
Clc1ccc(Nc2nnc(Cc3ccncc3)c3ccccc23)cc1	118
O=C(NC(NC(=S)Nc1ccc(F)c([N+](=O)[O-])c1)C(Cl)(Cl)Cl)C(c1ccccc1)c1ccccc1 (centres undefined)	89.3
Cc1cc2ncc(-c3ccccc3)nc2cc1C	97.6
Nc1n[nH]c2nnc(-c3c(-c4ccccc4)nn4ccccc34)cc12	75.9

Each molecule was assayed against PRKD1 (human) (UniProt Q15139) in the same assay as above. Conditions: compound 0.5 µM; ATP 10 µM.

Structure (SMILES)	residual activity [%]
Clc1ccc(Nc2nnc(Cc3ccncc3)c3ccccc23)cc1	101
O=C(NC(NC(=S)Nc1ccc(F)c([N+](=O)[O-])c1)C(Cl)(Cl)Cl)C(c1ccccc1)c1ccccc1 (centres undefined)	96.9
Cc1cc2ncc(-c3ccccc3)nc2cc1C	100
Nc1n[nH]c2nnc(-c3c(-c4ccccc4)nn4ccccc34)cc12	68.4

The molecules below were run against VRK1 (human) (UniProt Q99986) in the same assay as above. Conditions: compound 0.5 µM; ATP 10 µM.

Structure (SMILES)	residual activity [%]
Clc1ccc(Nc2nnc(Cc3ccncc3)c3ccccc23)cc1	109
O=C(NC(NC(=S)Nc1ccc(F)c([N+](=O)[O-])c1)C(Cl)(Cl)Cl)C(c1ccccc1)c1ccccc1 (centres undefined)	96.7
Cc1cc2ncc(-c3ccccc3)nc2cc1C	101
Nc1n[nH]c2nnc(-c3c(-c4ccccc4)nn4ccccc34)cc12	92.2

Each molecule was assayed against CDK1 CCNA2 (human) (UniProt P06493+P20248) in the same assay as above. Conditions: compound 0.5 µM; ATP 10 µM.

Structure (SMILES)	residual activity [%]
Clc1ccc(Nc2nnc(Cc3ccncc3)c3ccccc23)cc1	105
O=C(NC(NC(=S)Nc1ccc(F)c([N+](=O)[O-])c1)C(Cl)(Cl)Cl)C(c1ccccc1)c1ccccc1 (centres undefined)	101
Cc1cc2ncc(-c3ccccc3)nc2cc1C	94.4
Nc1n[nH]c2nnc(-c3c(-c4ccccc4)nn4ccccc34)cc12	101

Each molecule was assayed against CDK1 CCNB1 (human) (UniProt P06493+P14635) in the same assay as above. Conditions: compound 0.5 µM; ATP 10 µM.

Structure (SMILES)	residual activity [%]
Clc1ccc(Nc2nnc(Cc3ccncc3)c3ccccc23)cc1	104
O=C(NC(NC(=S)Nc1ccc(F)c([N+](=O)[O-])c1)C(Cl)(Cl)Cl)C(c1ccccc1)c1ccccc1 (centres undefined)	92.1
Cc1cc2ncc(-c3ccccc3)nc2cc1C	108
Nc1n[nH]c2nnc(-c3c(-c4ccccc4)nn4ccccc34)cc12	90.2

Each molecule was assayed against LIMK1 (human) (UniProt P53667) in the same assay as above. Conditions: compound 0.5 µM; ATP 10 µM.

Structure (SMILES)	residual activity [%]
Clc1ccc(Nc2nnc(Cc3ccncc3)c3ccccc23)cc1	98.9
O=C(NC(NC(=S)Nc1ccc(F)c([N+](=O)[O-])c1)C(Cl)(Cl)Cl)C(c1ccccc1)c1ccccc1 (centres undefined)	94.5
Cc1cc2ncc(-c3ccccc3)nc2cc1C	102
Nc1n[nH]c2nnc(-c3c(-c4ccccc4)nn4ccccc34)cc12	98.2

Each molecule was assayed against CDK9 CCNK (human) (UniProt O75909+P50750) in the same assay as above. Conditions: compound 0.5 µM; ATP 10 µM.

Structure (SMILES)	residual activity [%]
Clc1ccc(Nc2nnc(Cc3ccncc3)c3ccccc23)cc1	104
O=C(NC(NC(=S)Nc1ccc(F)c([N+](=O)[O-])c1)C(Cl)(Cl)Cl)C(c1ccccc1)c1ccccc1 (centres undefined)	110
Cc1cc2ncc(-c3ccccc3)nc2cc1C	101
Nc1n[nH]c2nnc(-c3c(-c4ccccc4)nn4ccccc34)cc12	98.5
